From PubChem BioAssay (NCI) come the findings set out here.

Among the test systems are HCT-15 colon; MDA-MB-435; OVCAR-4 ovarian; SF-295 CNS; SK-MEL-2 melanoma; SK-MEL-5 melanoma; SR leukemia; T-47D breast; U251 CNS; OVCAR-5 ovarian.
What all share (experiment): NCI-60 cell line screen, 48 h

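Results reflect a 48-hour exposure of cells in 96-well plates to compound at five concentrations. TGI is the concentration that stops growth completely.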

With `CC1(c2ccc(Cl)cc2)c2ccccc2C(=O)N1CCCN1C(=O)c2ccccc2C1=O` (stereo unspecified), the TGI in the assay on HCT-15 colon was over 100 µM; with MDA-MB-435 it was over 100 µM; in the assay with OVCAR-4 ovarian, over 100 µM; with SF-295 CNS, 67 µM; in the assay on SK-MEL-2 melanoma, 46.3 µM; in the assay with SK-MEL-5 melanoma, 31 µM. Besides, the TGI in the assay on SR leukemia, with T-47D breast and in the assay on U251 CNS was over 100 µM in each case.
On to `CC(C)(C)OC(=O)N1CCC2(CC1)C(=O)NCN2c1ccccc1`, for which the TGI in the assay with HCT-15 colon, in the assay on MDA-MB-435, in the assay with OVCAR-4 ovarian, in the assay on OVCAR-5 ovarian, in the assay with SF-295 CNS and with SK-MEL-2 melanoma was over 100 µM each time. Besides, the TGI in the assay on SK-MEL-5 melanoma, in the assay with SR leukemia, with T-47D breast and in the assay on U251 CNS was over 100 µM each time.
Regarding `CC(C)C(Nc1c2ccccc2[n+](C)c2ccccc12)C(=O)O` (stereo unspecified), the TGI in the assay on HCT-15 colon, in the assay with OVCAR-4 ovarian, in the assay on OVCAR-5 ovarian, with SF-295 CNS, with SK-MEL-2 melanoma and in the assay with SK-MEL-5 melanoma was over 100 µM each time. Besides, the TGI with SR leukemia and with U251 CNS was over 100 µM in each case.
Consider `CC1=NN(c2cc(Cl)c(S(=O)(=O)O)cc2Cl)C2(C1)C(Cl)C(=O)N2c1nc2ccccc2s1` (stereo unspecified), for which the TGI in the assay on HCT-15 colon, in the assay with MDA-MB-435, in the assay on OVCAR-4 ovarian, with OVCAR-5 ovarian, in the assay on SK-MEL-2 melanoma and in the assay on SK-MEL-5 melanoma was over 100 µM each time. For the same compound, the TGI in the assay with SR leukemia, in the assay on T-47D breast and in the assay with U251 CNS was over 100 µM in each case.
For the compound `FC(F)(Sc1ncccn1)c1nc2ccccc2o1`, the TGI with HCT-15 colon, in the assay with MDA-MB-435, in the assay on OVCAR-4 ovarian, with OVCAR-5 ovarian, with SF-295 CNS and in the assay with SK-MEL-2 melanoma was over 100 µM in each case. Moreover, the TGI with SK-MEL-5 melanoma, in the assay with SR leukemia, in the assay on T-47D breast and with U251 CNS was over 100 µM throughout.
As to `O=C(c1ccccc1)C1C(c2ccccc2[N+](=O)[O-])N1C1CCCCC1` (stereo unspecified), the TGI with HCT-15 colon amounted to 23 µM; in the assay on MDA-MB-435 it was 10.8 µM; in the assay on OVCAR-4 ovarian, 22.7 µM; with OVCAR-5 ovarian it was 36.9 µM; in the assay on SF-295 CNS it was 35.3 µM; in the assay on SK-MEL-2 melanoma it was 18.6 µM. The TGI is 24.4 µM with SK-MEL-5 melanoma, 7.57 µM in the assay with T-47D breast and 18.5 µM with U251 CNS.
Regarding `Cc1c(-c2ccccc2)oc(=O)c2ccccc12`, the TGI with HCT-15 colon worked out at 54.2 µM; with MDA-MB-435, 34.6 µM; in the assay with OVCAR-4 ovarian it was 71.4 µM; in the assay on OVCAR-5 ovarian, 80.9 µM; with SF-295 CNS, 40.2 µM; in the assay with SK-MEL-2 melanoma, 38.5 µM. In addition, the TGI with SK-MEL-5 melanoma is 33.8 µM; in the assay with SR leukemia, 65.4 µM; in the assay on T-47D breast, 75.7 µM; with U251 CNS it was 42.2 µM.
Regarding `N#Cc1nc(-c2ccsc2)oc1N`, the TGI with HCT-15 colon, with MDA-MB-435, in the assay with OVCAR-5 ovarian, in the assay on SK-MEL-2 melanoma, with SK-MEL-5 melanoma and in the assay with SR leukemia was over 100 µM in each case. Besides, in the assay on U251 CNS, the TGI is over 100 µM.
In the case of `CC(=O)N1CN2C(=O)CCC2c2cc(C)ccc21` (stereo unspecified), the TGI with HCT-15 colon, in the assay with MDA-MB-435, in the assay with OVCAR-4 ovarian, in the assay with OVCAR-5 ovarian, in the assay with SF-295 CNS and with SK-MEL-2 melanoma was over 100 µM each time. The TGI with SK-MEL-5 melanoma, in the assay with T-47D breast and in the assay with U251 CNS was over 100 µM each time.
On to `Nc1ncnc2c1ncn2C1C(O)C=C(CO)C1O` (stereo unspecified), for which the TGI in the assay on HCT-15 colon, in the assay with OVCAR-4 ovarian, with SF-295 CNS, in the assay with SK-MEL-2 melanoma and in the assay with SK-MEL-5 melanoma was over 625 µM throughout.
As to `O=c1[nH]c(NCCCCCO)nc2nc[nH]c12`, the TGI in the assay on HCT-15 colon, with MDA-MB-435, with OVCAR-4 ovarian, in the assay on OVCAR-5 ovarian, in the assay with SK-MEL-2 melanoma and in the assay on SK-MEL-5 melanoma was over 100 µM throughout. The TGI in the assay with SR leukemia, with T-47D breast and with U251 CNS was over 100 µM each time.
Consider `COc1cc(C2C3=C(NC(=O)C2C#N)c2ccc4ccccc4c2OCC3)cc(OC)c1OC` (stereo unspecified), for which the TGI is over 100 µM with HCT-15 colon; over 100 µM in the assay with MDA-MB-435; over 100 µM in the assay on OVCAR-4 ovarian; 42.3 µM in the assay on OVCAR-5 ovarian; over 100 µM with SF-295 CNS; 59.4 µM in the assay on SK-MEL-2 melanoma. Besides, the TGI with SK-MEL-5 melanoma is over 100 µM; with T-47D breast it was 62.5 µM; in the assay on U251 CNS, 30.4 µM.
For the compound `CC(CSc1nc2c(c(=N)n1-c1ccccc1)c(=S)n(-c1ccccc1)c(=S)n2-c1ccccc1)CN(C)C` (stereo unspecified), the TGI in the assay on HCT-15 colon amounted to 3.17 µM; with MDA-MB-435, 3.13 µM; in the assay with OVCAR-4 ovarian, 3.2 µM; in the assay with OVCAR-5 ovarian it was 26.8 µM; in the assay with SF-295 CNS it was 16.7 µM; with SK-MEL-2 melanoma, 5.29 µM. Besides, the TGI with SK-MEL-5 melanoma worked out at 4.42 µM; in the assay with SR leukemia it was 0.938 µM; in the assay on U251 CNS, 3.28 µM.
In the case of `CN(C)c1ccc(/C=C2\N=C(c3ccccc3)N(c3nc4ccc(Sc5ccccc5)cc4[nH]3)C2=O)cc1`, the TGI is over 100 µM with HCT-15 colon; 38.6 µM in the assay on MDA-MB-435; over 100 µM with OVCAR-4 ovarian; over 100 µM in the assay with OVCAR-5 ovarian; 72.2 µM in the assay on SF-295 CNS; 60.3 µM in the assay with SK-MEL-2 melanoma. In addition, the TGI in the assay with SK-MEL-5 melanoma, with T-47D breast and in the assay on U251 CNS was over 100 µM throughout.
Take `CCOC(=O)CCC(C(=O)OCC)n1nnc2cc(Nc3c(C)[n+]([O-])c4cc(Cl)ccc4[n+]3[O-])ccc21` (stereo unspecified): the TGI in the assay on HCT-15 colon, in the assay on MDA-MB-435, with OVCAR-4 ovarian, in the assay on OVCAR-5 ovarian, with SF-295 CNS and in the assay with SK-MEL-2 melanoma was over 100 µM throughout. Further, the TGI in the assay with SK-MEL-5 melanoma, with T-47D breast and in the assay on U251 CNS was over 100 µM in each case.
